According to patent US4419349A (priority 1978, dated 1983):

Tests used:
Format in all cases: cell-based
rabbit spleen cells = system: rabbit spleen cells
mouse spleen cells = experiment: IF induction in vitro, mouse (Table 6); conditions: control 1.0 μg/ml
Description: (§1) A spleen cell suspension (10^7 cells/ml) was prepared by the method of hereinafter described Experiment 1 using an Eagle MEM medium (commercial product of Nissui Seiyaku K.K., Tokyo) containing a 10% calf serum (which was replaced by a 10% fetal cattle serum in the cases of human tests), each of which fraction (1 ml) was added with a given concentration of the sample of the active substance and incubated at a given temperature. The cultured liquor was centrifuged to separate a supernatant which was used for determining the IF activity induced. In the case of humans, the fresh spleen was collected from a person (adult deceased by external wounds) and used for the preparation of a leucocytes suspension on each occasion, and also blood was collected from the vein at the upper arm of a person (adult), from which the serum was separated to use for the preparation of a serum suspension on each occasion.
(§2) The IF activities were determined by using the cells shown in Table 5 in a similar manner to that hereinafter described in Experiment 1.

human spleen cells = experiment: IF induction in vitro, human spleen (Table 6); conditions: control 1.0 μg/ml
Description: as §1, §2

## Poly I:C
Rabbit spleen cells
  IF activity in vitro (Control): 220
Mouse spleen cells
  IF activity in vitro (Control): 120
Human spleen cells
  IF activity in vitro (Control): < 5
